Laboratory results as given in patent US9365541B2, “Compounds for use in the treatment of parasitic diseases” (IRBM—SCIENCE PARK S.P.A., priority 2012, dated 2016).

How the values were obtained:
human HDAC1 = molecular target: T1, human HDAC1 (Homo sapiens, UniProt Q13547); test: Homo sapiens HDAC1 inhibition assay (Fluor-de-Lys, enzymatic); type: biochemical; conditions: human HDAC enzymatic assay; read-out: hHDAC IC50
T1 construct: made in house; host or cells: HeLa (ATCC CCL-2), mammalian cells
Method in brief: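 Fluorogenic deacetylation read-out: trypsin developer, supplemented with 2 μM final TSA as stop, releases fluorophore from deacetylated substrate.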

[1] = tested on: Plasmodium falciparum 3D7; test: P. falciparum growth inhibition assay (Pf-LDH); type: cell-based; conditions: Plasmodium falciparum, Erythrocyte; P. falciparum 3D7 infected erythrocytes, 72 h incubation, PfLDH readout
Method in brief: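 Compounds were tested against 72 h cultures of the 3D7 strain (0.25% parasitemia, 2% hematocrit, 37° C, low-oxygen gas). Parasite growth was quantified as lactate dehydrogenase activity via NBT reduction, absorbance 650 nm, after freezing and thawing.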

T1 sequence (Q13547 whole entry): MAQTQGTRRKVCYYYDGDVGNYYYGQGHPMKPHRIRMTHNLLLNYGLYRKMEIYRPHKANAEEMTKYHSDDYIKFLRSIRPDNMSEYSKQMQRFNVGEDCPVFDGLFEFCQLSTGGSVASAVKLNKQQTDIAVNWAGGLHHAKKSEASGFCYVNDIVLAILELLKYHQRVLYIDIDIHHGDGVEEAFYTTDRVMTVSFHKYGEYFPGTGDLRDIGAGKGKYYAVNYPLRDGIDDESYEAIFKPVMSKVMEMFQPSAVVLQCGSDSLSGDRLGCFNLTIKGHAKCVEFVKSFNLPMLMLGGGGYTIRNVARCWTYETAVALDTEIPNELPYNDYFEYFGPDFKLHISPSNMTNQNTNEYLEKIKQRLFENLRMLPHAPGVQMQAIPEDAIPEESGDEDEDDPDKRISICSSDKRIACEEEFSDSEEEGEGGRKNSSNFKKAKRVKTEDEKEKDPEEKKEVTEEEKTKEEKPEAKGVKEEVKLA

Structure (SMILES) | IC50 (human HDAC1) [nM] | EC50 [1] [nM]
CNC(=O)CCCCC[C@H](NC(=O)c1cncs1)c1ncc(-c2ccc3occc3c2)[nH]1 [Entry 136, (S)-N-(1-(5-(benzofuran-5-yl)-1H-imidazol-2-yl)-7-(methylamino)-7-oxoheptyl)thiazole-5-carboxamide] | > 5000 | > 5000
CNC(=O)CCCCC[C@H](NC(=O)c1cncs1)c1ncc(-c2ccc3ccccc3c2F)[nH]1 [Entry 137, (S)-N-(1-(5-(1-fluoronaphthalen-2-yl)-1H-imidazol-2-yl)-7-(methylamino)-7-oxoheptyl)thiazole-5-carboxamide] | > 5000 | > 5000
CNC(=O)CCCCC[C@H](NC(=O)c1cncs1)c1ncc(-c2ccc3cnccc3c2)[nH]1 [Entry 138, (S)-N-(1-(5-(isoquinolin-6-yl)-1H-imidazol-2-yl)-7-(methylamino)-7-oxoheptyl)thiazole-5-carboxamide] | 1000 to 5000 | < 1000
CNC(=O)CCCCC[C@H](NC(=O)c1cncs1)c1ncc(-c2ccc(-c3ccccn3)cc2)[nH]1 [Entry 139, (S)-N-(7-(methylamino)-7-oxo-1-(5-(4-(pyridin-2-yl)phenyl)-1H-imidazol-2-yl)heptyl)thiazole-5-carboxamide] | 1000 to 5000 | 1000 to 5000
CNC(=O)CCCCC[C@H](NC(=O)c1cncs1)c1ncc(-c2cc3ccccc3n(C)c2=O)[nH]1 [Entry 140, (S)-N-(1-(5-(1-methyl-2-oxo-1,2-dihydroquinolin-3-yl)-1H-imidazol-2-yl)-7-(methylamino)-7-oxoheptyl)thiazole-5-carboxamide] | 1000 to 5000 | 1000 to 5000
CNC(=O)CCCCC[C@H](NC(=O)c1cnc(CN2CCCC2)s1)c1ncc(-c2ccc(-n3cccn3)cc2)[nH]1 [Entry 141, (S)-N-(1-(5-(4-(1H-pyrazol-1-yl)phenyl)-1H-imidazol-2-yl)-7-(methylamino)-7-oxoheptyl)-2-(pyrrolidin-1-ylmethyl)thiazole-5-carboxamide] | 1000 to 5000 | 1000 to 5000
CNC(=O)CCCCC[C@H](NC(=O)CCc1nc2ccccc2s1)c1ncc(-c2ccc(-n3cccn3)cc2)[nH]1 [Entry 142, (S)-7-(5-(4-(1H-pyrazol-1-yl)phenyl)-1H-imidazol-2-yl)-7-(3-(benzo[d]thiazol-2-yl)propanamido)-N-methylheptanamide] | 1000 to 5000 | 1000 to 5000
CNC(=O)CCCCC[C@H](NC(=O)c1cncs1)c1ncc(-c2ccc3ccncc3c2)[nH]1 [Entry 143, (S)-N-(1-(5-(isoquinolin-7-yl)-1H-imidazol-2-yl)-7-(methylamino)-7-oxoheptyl)thiazole-5-carboxamide] | < 1000 | < 1000
CNC(=O)CCCCC[C@H](NC(=O)c1cn2ccccc2n1)c1ncc(-c2ccc3ccccc3c2)[nH]1 [Entry 144, (S)-N-(7-(methylamino)-1-(5-(naphthalen-2-yl)-1H-imidazol-2-yl)-7-oxo-heptyl)imidazo[1,2-a]pyridine-2-carboxamide] | > 5000 | > 5000
CNC(=O)CCCCC[C@H](NC(=O)C1CCC1(F)F)c1ncc(-c2ccc3ccncc3c2)[nH]1 (stereo partly drawn) [Entry 145, 2,2-difluoro-N-((S)-1-(5-(isoquinolin-7-yl)-1H-imidazol-2-yl)-7-(methylamino)-7-oxo-heptyl)cyclobutane-carboxamide] | 1000 to 5000 | 1000 to 5000
CNC(=O)CCCCC[C@H](NC(=O)Cc1csc2nccn12)c1ncc(-c2ccc(-c3ccn(C)n3)cc2)[nH]1 [Entry 146, (S)-7-(2-(imidazo[2,1-b]thiazol-3-yl)acetamido)-N-methyl-7-(5-(4-(1-methyl-1H-pyrazol-3-yl)phenyl)-1H-imidazol-2-yl)heptanamide] | 1000 to 5000 | 1000 to 5000
CNC(=O)CCCCC[C@H](NC(=O)c1cncs1)c1ncc(-c2cccc3ccoc23)[nH]1 [Entry 147, (S)-N-(1-(5-(benzofuran-7-yl)-1H-imidazol-2-yl)-7-(methylamino)-7-oxoheptyl)thiazole-5-carboxamide] | 1000 to 5000 | 1000 to 5000
CNC(=O)CCCCC[C@H](NC(=O)Cc1c(C)[nH]c2ccc(OC)cc12)c1nnc(-c2ccc3ccccc3c2)[nH]1 [Entry 148, (S)-7-(2-(5-methoxy-2-methyl-1H-indol-3-yl)acetamido)-N-methyl-7-(5-(naphthalen-2-yl)-4H-1,2,4-triazol-3-yl)heptanamide] | < 1000 | < 1000
CCc1nc2ccccc2n1CCC(=O)N[C@@H](CCCCCC(=O)NC)c1ncc(-c2ccc3ccccc3c2)[nH]1 [Entry 150, (S)-7-(3-(2-ethyl-1H-benzo[d]imidazol-1-yl)propanamido)-N-methyl-7-(5-(naphthalen-2-yl)-1H-imidazol-2-yl)heptanamide] | < 1000 | < 1000
CNC(=O)CCCCC[C@H](NC(=O)Cn1c(=O)ncc2ccccc21)c1ncc(-c2ccc3ccccc3c2)[nH]1 [Entry 151] | < 1000 | 1000 to 5000
CNC(=O)CCCCC[C@H](NC(=O)C12CCN(CC1)CC2)c1ncc(-c2ccc3ncccc3c2)[nH]1 [Entry 152] | < 1000 | 1000 to 5000
CNC(=O)CCCCC[C@H](NC(=O)C12CCN(CC1)CC2)c1ncc(-c2ccc3cc(OC)ccc3c2)[nH]1 [Entry 153, (S)-N-(1-(5-(6-methoxynaphthalen-2-yl)-1H-imidazol-2-yl)-7-(methylamino)-7-oxo-heptyl)quinuclidine-4-carboxamide] | < 1000 | < 1000
CNC(=O)CCCCC[C@H](NC(=O)C12CCN(CC1)CC2)c1ncc(-c2ccc3cc(F)ccc3c2)[nH]1 [Entry 154, (S)-N-(1-(5-(6-fluoronaphthalen-2-yl)-1H-imidazol-2-yl)-7-(methylamino)-7-oxo-heptyl)quinuclidine-4-carboxamide] | < 1000 | < 1000
CNC(=O)CCCCC[C@H](NC(=O)CC1=CSC2=NCCCN12)c1ncc(-c2ccc3ccncc3c2)[nH]1 [Entry 155, (S)-7-(2-(6,7-dihydro-5H-thiazolo[3,2-a]pyrimidin-3-yl)acetamido)-7-(5-(isoquinolin-7-yl)-1H-imidazol-2-yl)-N-methyl-heptanamide] | 1000 to 5000 | 1000 to 5000
CNC(=O)CCCCC[C@H](NC(=O)c1cccc(-n2cccn2)c1)c1ncc(-c2cc3ccccc3nc2OC)[nH]1 [Entry 156, (S)-N-(1-(5-(2-methoxyquinolin-3-yl)-1H-imidazol-2-yl)-7-(methylamino)-7-oxoheptyl)-3-(1H-pyrazol-1-yl)benzamide] | > 5000 | 1000 to 5000
CNC(=O)CCCCC[C@H](NC(=O)Cn1ccnn1)c1ncc(-c2ccc3[nH]ncc3c2)[nH]1 [Entry 157, (S)-7-(2-(1H-1,2,3-triazol-1-yl)acetamido)-7-(5-(1H-indazol-5-yl)-1H-imidazol-2-yl)-N-methyl-heptanamide] | > 5000 | > 5000
CNC(=O)CCCCC[C@H](NC(=O)c1cncs1)c1ncc(-c2ccc(-c3ccn(C)n3)cc2)[nH]1 [Entry 158] | 1000 to 5000 | < 1000
CNC(=O)CCCCC[C@H](NC(=O)c1cncs1)c1ncc(-c2cnc3[nH]ncc3c2)[nH]1 [Entry 159, (S)-N-(1-(5-(1H-pyrazolo[3,4-b]pyridin-5-yl)-1H-imidazol-2-yl)-7-(methylamino)-7-oxoheptyl)thiazole-5-carboxamide] | > 5000 | > 5000
